# Source: ChEMBL document CHEMBL5137094, “Construction of Covalent Bisubstrate Inhibitor of Protein Kinase Reacting with Cysteine Residue at Substrate-Binding Site” (J Med Chem, 2022)
# Calls of active or inactive are those of the source. No cut-off for these calls is given here.
# Legend:
# [1] = target: T1, cAMP-dependent protein kinase catalytic subunit alpha (Homo sapiens, UniProt P17612); assay: Inhibition of ARC-1063 fluorescent probe binding to recombinant human PKAC-alpha incubated for 1 hr by time-gated luminescence intensity based displacement assay
# [2] = target: T1, cAMP-dependent protein kinase catalytic subunit alpha; assay: Displacement of ARC-1063 fluorescent probe from recombinant human PKAC-alpha assessed as dissociation equilibrium constant preincubated for 1 hr followed by photoluminescent probe addition by time-gated luminescence intensity based assay
# [3] = target: T1, cAMP-dependent protein kinase catalytic subunit alpha; assay: Displacement of ARC-1063 fluorescent probe from recombinant human PKAC-alpha assessed as dissociation half life preincubated for 1 hr followed by photoluminescent probe addition by time-gated luminescence intensity based assay
# [4] = target: T1, cAMP-dependent protein kinase catalytic subunit alpha; assay: Displacement of ARC-1063 fluorescent probe from recombinant human PKAC-alpha assessed as binding constant (kon) preincubated for 1 hr followed by photoluminescent probe addition by time-gated luminescence intensity based assay
# [5] = GSH reactivity in potassium phosphate buffer at pH 7.4 assessed as half life at 0.15 mM at 37 degreeC measured for 30 to 60 mins by HPLC-MS analysis; format: physicochemical; conditions: potassium phosphate buffer with GSH, time 30-60 min
# [6] = target: T1, cAMP-dependent protein kinase catalytic subunit alpha; assay: Binding affinity to recombinant human active PKAC-alpha assessed as compound-protein adduct formation by measuring formation of three bands at 1.5 uM incubated for 1 hr by 5-TAMRA dye based immunostaining analysis
# [7] = target: T1, cAMP-dependent protein kinase catalytic subunit alpha; assay: Binding affinity to recombinant human spiked PKAC-alpha in human U2OS cell lysates assessed as covalent compound-protein adduct formation at 1.5 uM incubated for 1 hr by 5-TAMRA dye based Western blot analysis; format: subcellular
# [8] = target: T1, cAMP-dependent protein kinase catalytic subunit alpha; assay: Binding affinity to recombinant human spiked PKAC-alpha in human U2OS cell lysates assessed as covalent compound-protein adduct formation at 1.5 uM incubated for 1 hr in presence of PK inhibitor, staurosporin by 5-TAMRA dye based Western blot analysis; format: subcellular
# [9] = target: T1, cAMP-dependent protein kinase catalytic subunit alpha; assay: Binding affinity to recombinant human spiked PKAC-alpha in human U2OS cell lysates assessed as covalent compound-protein adduct formation at 1.5 uM incubated for 1 hr in presence of GSH by 5-TAMRA dye based Western blot analysis; format: subcellular
# [10] = target: T1, cAMP-dependent protein kinase catalytic subunit alpha; assay: Binding affinity to recombinant human spiked PKAC-alpha in human HeLa cells assessed as covalent compound-protein adduct formation by measuring multiple fluorescent band formation at 1.5 uM incubated for 1 hr by 5-TAMRA dye based Western blot analysis; format: cell-based
# [11] = target: T1, cAMP-dependent protein kinase catalytic subunit alpha; assay: Binding affinity to recombinant human spiked PKAC-alpha in human HeLa cells assessed as covalent compound-protein adduct formation by measuring multiple fluorescent band formation at 150 nM incubated for 1 hr by 5-TAMRA dye based Western blot analysis; format: cell-based
# [12] = target: T1, cAMP-dependent protein kinase catalytic subunit alpha; assay: Binding affinity to recombinant human spiked PKAC-alpha in human PC-3 cell lysates assessed as covalent compound-protein adduct formation at 15 nM incubated for 1 hr by 5-TAMRA dye based Western blot analysis; format: subcellular
# [13] = target: cAMP-dependent protein kinase catalytic subunit beta (Homo sapiens) (UniProt P22694); assay: Binding affinity to recombinant full length human spiked PKAC-beta in human PC-3 cell lysates assessed as irreversible compound-protein adduct formation at 150 nM incubated for 1 hr by 5-TAMRA dye based Western blot analysis; format: subcellular
# [14] = system: RAC-gamma serine/threonine-protein kinase (Homo sapiens), Q9Y243 [S472D]; assay: (§1) Binding affinity to N-terminal 6His-tagged active recombinant human spiked Akt3 S472D mutant (117 to end residues) in human PC-3 cell lysates assessed as irreversible compound-protein adduct formation at 150 nM incubated for 1 hr by 5-TAMRA dye based Western blot analysis; format: subcellular
# [15] = target: Ribosomal protein S6 kinase alpha-5 (Homo sapiens) (UniProt O75582); assay: Binding affinity to N-terminal 6His-tagged recombinant human spiked MSK1 (2 to end residues) in human PC-3 cell lysates assessed as irreversible compound-protein adduct formation at 150 nM incubated for 1 hr by 5-TAMRA dye based Western blot analysis; format: subcellular
# [16] = target: T2, Aurora kinase A (Homo sapiens) (UniProt O14965); assay: (§2) Binding affinity to N-terminal 6His-tagged active recombinant full length human spiked Aurora A in human PC-3 cell lysates assessed as irreversible compound-protein adduct formation at 150 nM incubated for 1 hr by 5-TAMRA dye based Western blot analysis; format: subcellular
# T2 sequence (whole entry): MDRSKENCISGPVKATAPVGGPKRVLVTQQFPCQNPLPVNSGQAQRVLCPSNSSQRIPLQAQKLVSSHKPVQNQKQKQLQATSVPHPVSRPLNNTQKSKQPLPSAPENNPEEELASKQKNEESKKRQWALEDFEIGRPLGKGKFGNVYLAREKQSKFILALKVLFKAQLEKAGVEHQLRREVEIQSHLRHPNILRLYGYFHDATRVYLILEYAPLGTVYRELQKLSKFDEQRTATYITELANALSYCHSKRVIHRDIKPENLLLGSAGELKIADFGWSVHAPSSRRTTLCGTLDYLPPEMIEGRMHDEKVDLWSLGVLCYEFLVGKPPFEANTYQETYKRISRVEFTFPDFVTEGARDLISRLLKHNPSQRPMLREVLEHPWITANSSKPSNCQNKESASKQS
# [17] = target: cAMP-dependent protein kinase catalytic subunit beta (Homo sapiens) (UniProt P22694); assay: Binding affinity to recombinant full length human spiked PKAC-beta in human PC-3 cell lysates assessed as irreversible compound-protein adduct formation by measuring remaining activity at 150 nM measured after 1 hr by […] immunostaining based Western blot analysis; format: subcellular
# [18] = system: RAC-gamma serine/threonine-protein kinase (Homo sapiens), Q9Y243 [S472D]; assay: as §1, with “formation by measuring remaining activity” for “formation”, “Akt3 antibody immunostaining” for “5-TAMRA dye”; format: subcellular
# [19] = target: T2, Aurora kinase A (Homo sapiens); assay: as §2, with “formation by measuring remaining activity” for “formation”, “Aurora A antibody immunostaining” for “5-TAMRA dye”; format: subcellular
# [20] = target: T1, cAMP-dependent protein kinase catalytic subunit alpha; assay: Inhibition of ARC-1063 fluorescent probe binding to recombinant human PKAC-alpha incubated for 22 hrs by time-gated luminescence intensity based displacement assay
# [21] = target: T1, cAMP-dependent protein kinase catalytic subunit alpha; assay: Irreversible inhibition of ARC-1063 fluorescent probe binding to recombinant human PKAC-alpha incubated for 22 hrs followed by probe addition at 20 nM and further incubated for 1 hr by time-gated luminescence intensity based displacement assay
# [22] = target: T1, cAMP-dependent protein kinase catalytic subunit alpha; assay: Binding affinity to human recombinant PKAC-alpha assessed as reduction in TGLI signal at 10 uM pretreated with compound followed by ARC-1063 fluorescent probe addition by time-gated luminescence intensity based displacement assay; conditions: time 60-480 min, TDE = time-dependent effect
# [23] = target: T1, cAMP-dependent protein kinase catalytic subunit alpha; assay: Binding affinity to human recombinant PKAC-alpha assessed as inactivation constant incubated for 1 hr by time-gated luminescence intensity based displacement assay
# [24] = target: T1, cAMP-dependent protein kinase catalytic subunit alpha; assay: Covalent inhibition of human recombinant PKAC-alpha assessed as inhibition constant
# [25] = target: T1, cAMP-dependent protein kinase catalytic subunit alpha; assay: Binding affinity to human recombinant PKACalpha assessed as compound-protein adduct formation by measuring half life at 30 degreeC
# RAC-gamma serine/threonine-protein kinase (Homo sapiens), Q9Y243 [S472D], sequence (Q9Y243 whole entry S472D): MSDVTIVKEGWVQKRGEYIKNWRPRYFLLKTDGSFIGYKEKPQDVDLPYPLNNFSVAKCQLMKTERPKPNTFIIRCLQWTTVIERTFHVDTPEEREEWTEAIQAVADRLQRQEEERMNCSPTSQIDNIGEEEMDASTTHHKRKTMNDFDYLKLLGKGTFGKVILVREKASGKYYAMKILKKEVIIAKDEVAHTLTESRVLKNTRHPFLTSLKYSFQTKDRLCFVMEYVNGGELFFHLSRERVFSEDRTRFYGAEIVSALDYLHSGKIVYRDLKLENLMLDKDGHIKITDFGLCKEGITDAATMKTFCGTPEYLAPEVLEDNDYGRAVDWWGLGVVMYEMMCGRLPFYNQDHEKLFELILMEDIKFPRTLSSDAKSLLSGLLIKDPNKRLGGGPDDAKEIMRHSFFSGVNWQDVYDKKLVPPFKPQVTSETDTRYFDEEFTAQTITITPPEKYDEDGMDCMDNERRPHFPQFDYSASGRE
# Ribosomal protein S6 kinase alpha-5 (Homo sapiens), sequence (O75582 whole entry, looked up): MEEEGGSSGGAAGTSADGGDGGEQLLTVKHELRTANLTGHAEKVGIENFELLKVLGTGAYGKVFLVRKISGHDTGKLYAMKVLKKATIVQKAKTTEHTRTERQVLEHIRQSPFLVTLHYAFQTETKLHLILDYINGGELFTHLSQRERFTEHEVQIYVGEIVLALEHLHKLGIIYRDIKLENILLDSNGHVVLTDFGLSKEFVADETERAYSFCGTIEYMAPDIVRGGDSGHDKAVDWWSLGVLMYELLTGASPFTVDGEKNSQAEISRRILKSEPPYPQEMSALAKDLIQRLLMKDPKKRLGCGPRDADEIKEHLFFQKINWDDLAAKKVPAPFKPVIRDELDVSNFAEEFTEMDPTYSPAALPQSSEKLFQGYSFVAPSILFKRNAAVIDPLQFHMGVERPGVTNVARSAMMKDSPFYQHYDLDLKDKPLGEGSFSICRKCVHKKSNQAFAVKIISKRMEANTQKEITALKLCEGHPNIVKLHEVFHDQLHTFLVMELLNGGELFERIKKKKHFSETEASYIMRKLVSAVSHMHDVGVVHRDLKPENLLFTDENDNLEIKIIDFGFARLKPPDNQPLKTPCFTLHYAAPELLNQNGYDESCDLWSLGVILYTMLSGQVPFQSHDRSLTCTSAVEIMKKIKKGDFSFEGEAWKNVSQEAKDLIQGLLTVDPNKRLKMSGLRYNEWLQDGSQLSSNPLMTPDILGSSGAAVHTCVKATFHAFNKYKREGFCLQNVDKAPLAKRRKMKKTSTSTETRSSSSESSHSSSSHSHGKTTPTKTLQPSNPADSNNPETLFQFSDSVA
compound,measurement,setting,value
CC[C@H](C)[C@H](NC(=O)CCC(=O)N[C@@H](CCCCNC(=O)[C@@H](CCCNC(=N)N)NC(=O)CCCCCCCC(=O)N1CCN(c2ncnc3[nH]ccc23)CC1)C(=O)N[C@H](CCCNC(=N)N)C(N)=O)C(=O)NCC(C)=O,IC50,[1],790 nM
same,Kd,[2],0.63 nM
same,T1/2,[3],0.00833 h
same,K,[4],3.8 10^7/M/s
CC[C@H](C)[C@H](NC(=O)CCC(=O)N[C@@H](CCCCNC(=O)[C@@H](CCCNC(=N)N)NC(=O)CCCCCCCC(=O)N1CCN(c2ncnc3[nH]ccc23)CC1)C(N)=O)C(=O)NCC(C)=O,IC50,[1],6100 nM
same,Kd,[2],4.2 nM
same,T1/2,[3],0.00167 h
same,K,[4],3.3 10^7/M/s
NC(=O)CF [MONOFLUOROACETAMIDE],half-life at 150 µM,[5],> 70 h
CC[C@H](C)[C@H](NC(=O)CCC(=O)N[C@@H](CCCCNC(=O)[C@@H](CCCNC(=N)N)NC(=O)CCCCCCCC(=O)N1CCN(c2ncnc3[nH]ccc23)CC1)C(=O)N[C@H](CCCNC(=N)N)C(=O)N[C@H](CCCNC(=N)N)C(=O)N[C@H](CCCCNC(=O)c1ccc(-c2c3ccc(=[N+](C)C)cc-3oc3cc(N(C)C)ccc23)c(C(=O)O)c1)C(N)=O)C(=O)NCC(=O)CF,Activity,[6],Active
same,Activity,[7],Active
same,Activity,[8],Active
same,Activity,[9],Active
same,Activity,[10],Active
same,Activity,[11],Active
same,Activity,[12],Active
same,Activity,[13],Active
same,Activity,[14],Active
same,Activity,[15],Active
same,Activity,[16],Active
same,Activity,[17],Active
same,Activity,[18],Active
same,Activity,[19],Active
CC[C@H](C)[C@H](NC(=O)CCC(=O)N[C@@H](CCCCNC(=O)[C@@H](CCCNC(=N)N)NC(=O)CCCCCCCC(=O)N1CCN(c2ncnc3[nH]ccc23)CC1)C(=O)N[C@H](CCCNC(=N)N)C(N)=O)C(=O)NCC(=O)CF,IC50,[1],1200 nM
same,T1/2,[3],> 2.5 h
same,IC50,[20],500 nM
same,IC50,[21],800 nM
same,Activity,[22],Tde
same,Kinact,[23],7.7 10^-5/s
same,Ki,[24],0.63 nM
same,T1/2,[25],2.52 h
